Measurements published in US20080319084A1, “Wrinkling Prevention or Remedy with Adam Activity Inhibiting Substance” (Shiseido Company, Ltd., priority 2004, published 2008).

What was measured:
[1] = system: ADAM enzyme; assay: Screening of ADAM activity inhibiting substance: TPA-induced HB-EGF-AP release from HB-EGF-AP/HT-1080 cells; assay type: cell-based, human; conditions: 60 nM TPA, 60 minutes
Description: Firstly, the screening of a compound having the ADAM enzyme inhibiting activity was performed by use of HB-EGF-AP/HT-1080 (human fibrosarcoma-derived cultured cells HT-1080 having been modified so as to achieve forcible expression of a fusion protein, in which heat-resistant alkaline phosphatase (AP) has been added to an N terminal of human HB-EGF). On the surfaces of the cells of the used cell strain HB-EGF-AP/HT-1080, the HB-EGF entire length molecule is expressed in the form fused with the alkaline phosphatase. In cases where the cells are excited by a phorbol ester, the ADAM enzyme on the cell membrane surfaces is activated to cut the HB-EGF molecule. Since alkaline phosphatase has been bound to HB-EGF having been cut into the released form, in cases where the alkaline phosphatase activity in a culture supernatant is measured, the ADAM enzyme inhibiting activity of the compound is capable of being measured indirectly.
Specifically, HB-EGF-AP/HT-1080, in which the number of cells had been adjusted at 2.0×10^5 cells/ml, was sowed at a rate of 0.2 ml/well to a 96-well culture micro-plate and was cultured overnight at a temperature of 37° C. […] After the incubation was performed at the room temperature for two hours under a light blocking condition, the absorbance in each well at the wavelength of 405 nm was measured again. […]

[2] = system: finely wrinkled mouse model; assay: Evaluation of anti-wrinkling effects of ADAM activity inhibiting substances in finely wrinkled mouse model (visual score, wrinkle area); assay type: in vivo, hairless mouse (HR-1); conditions: for mean value of the wrinkle score (visual judgment, 0 no wrinkle to 3 deep wrinkles): after four weeks, 1 mM TAPI-1 or 1% 4-methoxybenzohydroxamic acid in 50% aqueous ethanol, 100 μl after each tape stripping, vehicle 1.17; for mean value of the wrinkle area (%) versus vehicle: replica analysis after four weeks, 1 mM TAPI-1 or 1% 4-methoxybenzohydroxamic acid
Description: The anti-wrinkling effects of TAPI-1 and 4-methoxybenzohydroxamic acid acting as the ADAM activity inhibiting substances were studied by use of the finely wrinkled mouse model.
Specifically, on the skin on the left side of the dorsal section of a hairless mouse (HR-1, male, six weeks of age, supplied by Hoshino Experimental Animals), the tape stripping was performed in three stages per week and was continued for four weeks such that the transepidermal water loss (TEWL) (as measured by use of a water evaporation quantity measuring apparatus MEECO, supplied by Meeco Co., U.S.A) might fall within the range of 4 mg/cm^2/h to 8 mg/cm^2/h. Immediately after each stage of the tape stripping processing had been performed, 100 μl of TAPI-1 or 4-methoxybenzohydroxamic acid was applied to the skin on the left side of the dorsal section of the mouse. At this time, 4-methoxybenzohydroxamic acid was dissolved in a 50% aqueous ethanol solution such that the concentration of 4-methoxybenzohydroxamic acid might become equal to 1%, and 4-methoxybenzohydroxamic acid was used in the form of the resulting solution. Also, TAPI-1 (supplied by Peptide Research Institute) was evaluated at a concentration of 1 mM. Further, as a negative control, a 50% aqueous ethanol solution (i.e., a vehicle) was applied in the same manner as that described above.
The state of occurrence of wrinkles after a period of four weeks had elapsed was expressed by scores with visual judgment. The state of occurrence of wrinkles was evaluated with the rating described below. • 0: No wrinkle • 1: shallow wrinkles • 2: clear wrinkles • 3: Deep wrinkles The state of occurrence of wrinkles was expressed by the scores at intervals of 0.5. A larger score represents deeper wrinkles. The mean value and the standard deviation of each group were calculated. The results illustrated in FIG. 5 were obtained.
Thereafter, the replicas of the dorsal section of the mouse were analyzed by use of a wrinkle analyzing apparatus (supplied by Hamano Engineering), and the wrinkle area (%) was calculated. A low wrinkle area percentage represents that the wrinkle formation has been suppressed. The results illustrated in FIG. 6 were obtained.

[3] = system: Photo-aged mouse model; assay: Wrinkle formation in Photo-aged mouse model (UV light irradiation); assay type: in vivo
Description: FIG. 2A is a diagram showing replica images of the mouse skin having been subjected to the tape stripping in the manner described above. FIG. 2B is a diagram showing microscopic photographs of a skin tissue slice of the mouse skin, which skin tissue slice has been stained with HE (hematoxylin-eosin). As illustrated in the replica images (FIG. 2A), skin ditches became deep at the stage 24 hours (24 h) after the beginning of the tape stripping and at the stage 48 hours (48 h) after the beginning of the tape stripping. At the stage one week (1 W) after the beginning of the tape stripping, the directions of the skin ditches coincided with predetermined directions. At the stage four weeks (4 W) after the beginning of the tape stripping, a wrinkle-like appearance occurred. […] At the stage two weeks (2 W) after the beginning of the tape stripping, the epidermal hyperplasia was kept. Table 1 shown below lists morphological alterations, histological alterations, and the like, of the finely wrinkled mouse model having been prepared in the manner described above together with the morphological alterations, histological alterations, and the like, of a Photo-aged mouse model having been prepared with UV light irradiation (for 10 weeks).

[4] = system: finely wrinkled mouse model; assay: Anti-wrinkling effects of medicine application on finely wrinkled mouse model (tape stripping); assay type: in vivo, hairless mouse (HR-1); parameters: key to Wrinkling suppressing effects / Epidermal hyperplasia suppressing effects / Dermal hyperplasia suppressing effects: O: Remedied.; Δ: No alteration was found.; x: Aggravated; conditions: for Dermal hyperplasia suppressing effects / Epidermal hyperplasia suppressing effects / Wrinkling suppressing effects: 100 μl applied to skin after each tape stripping, 2 mM TAPI-1, 1% CGS27023A, 10% glycerol, 1% oleic acid; for Dermal hyperplasia suppressing effects / Epidermal hyperplasia suppressing effects: four weeks, HE-stained slices; for Wrinkling suppressing effects: up to four weeks; for hyperplasia of the epidermis and the dermis (in words) / wrinkle formation (in words): finely wrinkled mouse model, topical application
Description: It is considered that, in cases where the skin barrier is weakened or disrupted by various primary factors, such as a decrease in sebum and face washing, and water evaporation from the skin surface increases, the skin dries, and the fine wrinkles are formed. Therefore, tape stripping was repeatedly performed on the skin of a hairless mouse, the stratum corneum of thus peeled off, and the skin barrier was broken. In this manner, a finely wrinkled mouse model was prepared. Specifically, the tape stripping with cellophane adhesive tapes was performed on the skin on the left side of the dorsal section of a hairless mouse (HR-1, male, six weeks of age, supplied by Hoshino Experimental Animals) with the number of times of the tape stripping being adjusted such that a transepidermal water loss (TEWL) (as measured by use of a water evaporation quantity measuring apparatus MEECO, supplied by Meeco Co., U.S.A) might fall within the range of 4 mg/cm^2/h to 6 mg/cm^2/h. Ordinarily, at the initial stage, the tape stripping was iterated approximately four times. At the final stage, the tape stripping was iterated seven to eight times. The tape stripping was performed in three stages per week and was continued for four weeks. The right side of the dorsal section of the hairless mouse was left to stand as a non-treatment area. Studies were made with respect to the anti-wrinkling effects of the application of various medicines, which were listed in Table 2 below, on the finely wrinkled mouse model. Specifically, the tape stripping was performed on a hairless mouse in the manner described above. After each tape stripping processing, 100 μl of each of the medicines listed in Table 2 was applied to the skin of the hairless mouse. FIG. 4A is a diagram showing replica images of skins having been applied with different medicines in the finely wrinkled mouse model, which replica images have been taken at stages one week, two weeks, and four weeks after the application of each of the medicines. FIG. 4B is a diagram showing microscopic photographs of skin tissue slices of the skins at the stage four weeks after the application of each of the medicines, which skin tissue slices have been stained with HE (hematoxylin-eosin).

Row | SMILES | Inhibition rate (%) of HB-EGF release ([1]; concentration 10 μg/ml) | Inhibition rate (%) of HB-EGF release ([1]; concentration 50 μg/ml) | mean value of the wrinkle score (visual judgment, 0 no wrinkle to 3 deep wrinkles) [2] | mean value of the wrinkle area (%) versus vehicle [2] | wrinkle formation preventing effects (in words) [3] | Dermal hyperplasia suppressing effects [4] | Epidermal hyperplasia suppressing effects [4] | Wrinkling suppressing effects [4] | hyperplasia of the epidermis and the dermis (in words) [4] | wrinkle formation (in words) [4]
1 | COc1ccc(C(=O)NO)cc1 [4-Methoxybenzohydroxamic acid] | 14.8% | 55.8% | 0.91 | significantly lower |  |  |  |  |  | 
2 | COc1ccc(S(=O)(=O)N(Cc2cccnc2)[C@@H](C(=O)NO)C(C)C)cc1 [CGS27023A] |  |  |  |  | exhibited the wrinkle formation preventing effects | Δ | Δ | Δ | not capable of suppressing the hyperplasia of the epidermis and the dermis | not capable of suppressing the wrinkle formation at all
3 | OCC(O)CO [Glycerol] |  |  |  |  |  | Δ | x | Δ | not capable of suppressing the hyperplasia of the epidermis and the dermis | not capable of suppressing the wrinkle formation at all
4 | CCCCCCCC/C=C\CCCCCCCC(=O)O [Oleic acid] |  |  |  |  |  | x | x | x | accelerated the hyperplasia of the epidermis and the dermis | promoted the wrinkle formation
5 | CC(C)C[C@H](CC(=O)NO)C(=O)N[C@@H](Cc1ccc2ccccc2c1)C(=O)N[C@@H](C)C(=O)NCCN [TAPI-1, N—(R)-(2-(Hydroxyaminocarbonyl)methyl)-4-Methylpentanoyl-L-Nal-L-Alanine 2-Aminoethyl amide] |  |  | 0.43 | significantly lower |  | ∘ | ∘ | ∘ | markedly suppressed the hyperplasia of the epidermis and the dermis | suppressed the wrinkle formation
